In patent US20230390283A1, “USES OF CHK2 INHIBITORS” (The University of Birmingham, priority 2020, published 2023):
Entries after “also recorded” stand apart in the source; their conditions may differ.

Assays:
[1] = tested on: T8 dorsal column (DC) crush model of spinal cord injury; assay: DC crush injury model: horizontal ladder test (locomotor function); type: in vivo, rat; conditions: followed over 6 weeks
Protocol: (§1) DC crush injury model. Rats were injected subcutaneously with 0.05 ml Buprenorphine to provide analgesia prior to surgery and anaesthetised using 5% of Isoflurane in 1.8 ml/l of O2 with body temperature and heart rate monitored throughout surgery.
(§2) Chk2 inhibition studies in the DC crush injury model. […] Chk1i (LY2603618) was used at equimolar concentrations for each experiment. Rats were killed in a rising concentration of CO2 at either 28 d for immunohistochemistry and western blot analyses or 6 weeks for electrophysiology and functional tests.
(§3) Functional tests. […] Experiments were performed by 2 observers (treatment conditions were masked) in the same order, the same time of day and each test performed for 3 individual trials.
Horizontal ladder test: This tests the animals locomotor function and is performed on a 0.9-meter-long horizontal ladder with a diameter of 15.5 cm and randomly adjusted rungs with variable gaps of 3.5-5.0 cm. The total number of steps taken to cross the ladder and the left and right rear paw slips being were recorded and the mean error rate was then calculated by dividing the number of slips by the total number of steps taken.

RGC [2] = assay: Optic neuritis model: RGC survival (Fluorgold backfilled wholemounts); type: in vivo, mice; conditions: 21 days after induction
Protocol: (§4) Induction of optic neuritis. […] Animals were intraperitoneally injected with 150 ng Bordetella pertussis toxin on day 0 and 2. Animals were monitored daily and assessed for the development of EAE. At the end of the experiment, animals were then killed by CO2 overdose.
(§5) Assessment of RGC survival.

RGC function = conditions: 24 days after ONC
[3] = tested on: T8 dorsal column (DC) crush model of spinal cord injury; assay: DC crush injury model: electrophysiology (compound action potentials); type: in vivo, rat; conditions: 6 weeks after DC injury
Protocol: as §1, §2
Electrophysiology. […] Briefly, with the experimenter masked to the treatment conditions, silver wire electrodes applied single-current pulses (0.05 ms) through a stimulus isolation unit in increments (0.2, 0.3, 0.6, 0.8, and 1.2 mA) at L1-L2 and compound action potentials (CAP) were recorded at C4-C5 along the surface of the midline spinal cord. Spike 2 software was then used to calculate CAP amplitudes between the negative deflection after the stimulus artifact and the next peak of the wave. CAP area was calculated by rectifying the negative CAP component (full-wave rectification) and measuring its area. At the different stimulation intensities. […] Representative CAP traces are processed output data from Spike 2 software.

dorsal column (DC) axons = assay: DC crush injury model: GAP43+ DC axon regeneration; type: in vivo, rat
[4] = tested on: T8 dorsal column (DC) crush model of spinal cord injury; assay: DC crush injury model: tape sensing and removal test (sensory function); type: in vivo, rat; conditions: followed over 6 weeks
Protocol: as §1, §2, §3

[5] = tested on: primary adult rat dorsal root ganglion neuron (DRGN) cultures; assay: DRGN survival and neurite outgrowth in culture; type: cell-based; conditions: for optimal concentration that promoted DRGN/RGC survival and neurite outgrowth: preliminary experiments, DRGN/RGC cultures
Protocol: (§6) Rat DRGN and retinal cultures. […] Cells were cultured for 4 days in a humidified chamber at 37° C. and 5% CO2 before being subjected to quantitative RT-PCR or immunocytochemistry, as described below.
Immunocytochemistry. […] Slides were then viewed with an epi-fluorescent Axioplan 2 microscope, equipped with an AxioCam HRc and running Axiovision Software (all from Carl Zeiss, Hertfordshire, UK).

RGC [6] = assay: Glaucoma model: RGC survival in retinal wholemounts; type: in vivo, rat; conditions: 30 days after induction of glaucoma
Protocol: Induction of glaucoma. […] At day zero, a self-sealing incision was made though the cornea into the anterior chamber enabling twice weekly intracameral injections of 3.5 μl of TGFβ2 (5 ng/μl) using glass micropipettes for 30 days. Vehicle, comprising saline, was injected in control groups. Intraocular pressure was measured using an iCare Tonolab rebound tonometer (Icare, Helsinki, Finland).
as §5

[7] = tested on: retinal nerve fibre layer; assay: Optic neuritis model: RNFL thickness by OCT; type: in vivo, mice; conditions: day 21
Protocol: as §4
Measurement of RNFL thinning using optical coherence tomography (OCT). […] Examinations were recorded in both right (oculus dextrus, OD) and left eyes (oculus sinister, OS) of each animal at day 0 and day 21 after immunisation. […] A RNFL single exam using the automatic real time (ART) mode (allows averaging of 100 recordings) was produced for each mouse eye, which automatically measured RNFL thickness (μm) in a 30° circle surrounding the optic nerve head.

pChk2^T68 and pChk2^T383 = conditions: western blot and densitometry
Protocol: as §6
Protein extraction and western blot analysis. […] For densitometry, western blots were scanned into Adobe Photoshop (Adobe Systems Inc, San Jose, Calif., USA) and analysed using the built-in-macros for gel analysis in ImageJ (NIH, USA, http://imagej.nih.clov/ij).

**Q.** Which “ladder crossing test performance” value ([1]; listed as Chk1 i) does the source give for Cc1cnc(NC(=O)Nc2cc(Br)c(C)cc2OC[C@@H]2CNCCO2)cn1 [LY2603618] here?
**A.** a deficit remaining

**Q.** And the “ladder crossing test performance” value ([1]; listed as Chk1i)?
**A.** a significant deficit remains; also recorded: a deficit remaining

**Q.** And the “RGC survival in optic neuritis” value (RGC [2])?
**A.** no effect

**Q.** And the “ERG traces and pSTR amplitude” value (RGC function)?
**A.** no effect

**Q.** What about the “CAP area at different stimulation intensities” value [3] of the same compound?
**A.** significantly attenuated

**Q.** And the “negative CAP amplitudes” value ([3]; different stimulation intensities)?
**A.** significantly attenuated

**Q.** What about the “DC axon regeneration beyond the lesion site” value (dorsal column (DC) axons; listed as Chk1 i) of the same compound?
**A.** few GAP43^+ axons

**Q.** And the “DC axon regeneration beyond the lesion site” value (dorsal column (DC) axons; listed as Chk1i)?
**A.** no axon regeneration beyond the lesion site

**Q.** What about the “tape sensing/removal test performance” value ([4]; listed as Chk1 i) of the same compound?
**A.** a significant deficit remained

**Q.** What about the “tape sensing/removal test performance” value ([4]; listed as Chk1i) of the same compound?
**A.** a significant deficit remained

**Q.** And the “effect on DRGN/RGC survival” value ([5]; 1-50 μM)?
**A.** no effect

**Q.** And the “effect on DRGN survival, % DRGN with neurites and neurite length” value ([5]; 4 days culture)?
**A.** no effect

**Q.** And the “RGC survival in glaucoma” value (RGC [6])?
**A.** no effect

**Q.** And the “RNFL thickness in optic neuritis” value [7]?
**A.** no effect

**Q.** For NC(=O)c1ccc2[nH]c(-c3ccc(Oc4ccc(Cl)cc4)cc3)nc2c1 [BML-277], which “optimal concentration that promoted DRGN/RGC survival and neurite outgrowth” value [5] is on record?
**A.** 5 µM

**Q.** Which “Chk2 phosphorylation (pChk2^T68, pChk2^T383) in DRGN cultures” value (pChk2^T68 and pChk2^T383) does the source give for CCT241533 here?
**A.** suppresses

**Q.** With COc1cc2nc(-c3cc(F)ccc3O)nc(N[C@@H]3CNC[C@H]3C(C)(C)O)c2cc1OC [CCT241533] as the compound, how does the “optimal concentration that promoted DRGN/RGC survival and neurite outgrowth” value [5] read?
**A.** 10 µM

**Q.** Which “% DRGN with neurites” value ([5]; 4 days culture) does the source give for “FGF2: positive control for DRGN cultures, pre-optimised 10 ng/ml” here?
**A.** 42%

**Q.** And the mean neurite length ([5]; 4 days culture, controls 12 μm)?
**A.** 180 μm

**Q.** How did the “optimal concentration that promoted DRGN/RGC survival and neurite outgrowth” value [5] turn out when COc1cccc(OCCCN)c1-c1cc(Nc2cnc(C#N)cn2)n[nH]1 [Prexasertib] was run?
**A.** 10 µM
